The subject of series [1] is IFNγ, IL-5, IL-13, eotaxin, RANTES. Description: Lung cytokines 4 days post challenge, highly seropositive BALB/c mice. The protocol:
One hundred three female BALB/c mice (Charles River), ages 6-8 weeks old, were divided into 13 groups. Group 1 had 7 mice and groups 2 through 13 had 8 mice. Following anaesthetization groups 1 through 12 were dosed with 1×10^6 plaque forming units (PFU) in 100 μL of live RSV via an intranasal (IN) route on Day 0 and Day 35. Group 13 was not exposed to RSV. On Day 56, groups 1 through 11 were immunized with placebo (PBS) or vaccine article via an intramuscular (IM) route following anesthesia with isoflurane. The vaccine articles were formulated in a total of 100 μL with 50 μL given in each hind limb. Group 12 was anesthetized with isoflurane and immunized with 1×10^6 PFU in 100 μL of live RSV via an IN route. […] Sera were obtained from retro orbital blood collection at study days 0, 28, 56 70 and 84, separated from whole blood and stored at −20° C. until evaluated. Spleens from 4 animals in each group were harvested for T cell assays on Day 67, 11 days post immunization, or at day 88, 4 days post challenge. Lung cytokines quantified at 4 days after challenge in individual lung homogenates by luminex assay (Milipore).
Mouse cytokine/chemokine multiplex kits designed to include IFNgamma, IL-5, IL-13, IL-17 and eotaxin (Millipore, Billerica, Mass.) were used to evaluate lung homogenates. Lung homogenates were clarified by centrifugation prior to use. Assays were performed following manufacturer's instructions and plates were analyzed on a Luminex reader (Bio-Rad, Hercules, Calif.).

Series [2] deals with F-derived CD8 peptide (KYKNAVTEL). Description: CD8 IFNγ ELISPOT of splenocytes, 1x RSV seropositive BALB/c mice. The format is in vivo. How it is done:
Systemic cellular immune responses to vaccination were evaluated in representative animals at Day 10 post vaccination. Additional representative animals were recalled with a viral challenge at Day 69 and evaluated for long-term cellular immune responses at Day 73, 4 days post viral challenge. For each of the groups, 3-5 individual splenocyte samples were prepared. CD4 T-cell readouts were assessed by multiplexed cytokine analysis of supernatant levels of a panel of secreted cytokines (including IFNγ, IL-5, IL-10, IL-13, and IL-17) following a 72-hour restimulation period with RSV sF. CD8 T-cell readouts were assessed by 2 methods: ELISPOT counts of IFNγ-secreting cells following a 36-48 hour restimulation period with an F-derived CD8 peptide ([…] aa 85-93) (SEQ ID NO: 12) and intracellular staining and quantification of the percentage of F-specific polyfunctional (IFNγ+ TNFα+IL-2+) CD8 T cells following a 5-hour restimulation period with the F-derived CD8 peptide.

For series [3], the system named is RSV sF protein. Description: IFNγ and IL-4 ELISPOT of splenocytes, naive cotton rats. The note with it: splenocytes 4 days post challenge, RSV sF restimulation. The format is in vivo. How it is done: Paired antibodies for cotton rat IFNγ (#DY565) or IL-4 (#DY584) obtained in R&D DuoSet ELISA Systems were used in ELISPOT assay formats for the evaluation of cotton rat cellular immune responses. 96 well PVDF plates (Millipore, Billerica, Mass.) were coated overnight with kit provided capture antibody (anti-IFNγ or anti-IL-4, respectively) at 10 μg/mL in PBS. Plates were blocked with cRPMI-5 for 2 hours. Cells were then incubated on blocked coated plates in cRPMI-5 for 36-48 hours in triplicate with media, RSV sF ([…]), or ConA (5 μg/mL) as a positive control. Following incubation cells were washed away, plates were incubated with included biotinylated detection antibody (1 μg/mL in PBS+1% BSA) followed by streptavidin-HRP (Mabtech, Cincinnati, Ohio) and 3-amino-9-ethylcarbazole (AEC, Vector Labs, Burlingame, Calif.). Plates were read and analyzed using a CTL ImmunoSpot reader and software (Cellular Technology Ltd).

For the substance “RSV sF: RSV soluble F protein, amino acids 1-524 of the RSV A2 F sequence lacking the transmembrane domain, given without adjuvant”, in series [1] (4 days post challenge), the “lung RANTES following RSVA2 exposure” value is listed as “increased with increasing amounts of RSV sF”; the “lung eotaxin and IL-13 upon RSV challenge” value is “did not induce eotaxin or IL-13 levels higher than any of the other groups”. Also, in series [1] (day 88, 4 days post challenge), the “lung IL-5 in response to RSV challenge” value is “did not set up mice to induce IL-5”. Moreover, the “F-specific CD8 IFNγ ELISPOT response” value in series [2] (Day 10 post vaccination, highest dose (10 μg) RSV sF) is on record as 224 SFU/million. Moreover, the “F-specific CD8 IFNγ ELISPOT response (mean)” value in series [2] (Day 10 post vaccination, range across RSV sF doses 0.4-10 μg) is on record as 72-224 SFU/million. In addition, the “recall F-specific CD8 IFNγ ELISPOT response (means)” value in series [2] (Day 73, 4 days post RSV challenge, range across RSV sF doses) is listed as 62-243 SFU/million. For the same substance, the “F-specific IFNγ ELISPOT response (mean)” value in series [3] turned out to be 58 SFU/million cells.

(Values after patent publication US20160144021A1, “Vaccine Composition And Method Of Use” (MEDIMMUNE, LLC, priority 2013, published 2016).)
